In US20220380347A1, “INHIBITORS OF CYSTEINE PROTEASES AND METHODS OF USE THEREOF” (Pardes Biosciences, Inc., priority 2020, published 2022):
Like-named read-outs stand apart in the source and are kept apart here.

Legend:
229E Mpro = 229E Mpro (Human coronavirus 229E, UniProt P0C6X1); experiment: 229E Mpro enzymatic assay (standard methods, SARS-CoV2 Mpro assay given as exemplary); format: biochemical, human coronavirus (HCov) 229E
Method in brief: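 Run by standard methods, with the SARS-CoV-2 Mpro protocol given as the model: E. coli-expressed C-His6 protease at 25 nM and substrate at 25 μM (Km 13.5 μM). Buffer pH 7.3 with 5 mM TCEP and 0.1% BSA; % inhibition versus controls fitted to variable-slope log(inhibitor)-response for IC50.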

[1] = target: COVID-19 (nCoV-2019, SARS-CoV2) Mpro (Severe acute respiratory syndrome coronavirus 2, UniProt P0DTD1); experiment: COVID-19 (nCoV-2019, SARS-CoV2) Mpro enzymatic assay; format: biochemical; conditions: 25 nM Mpro, 25 μM substrate; read-out: COVID-19 Mpro IC50
HCov OC43 = experiment: HCoV OC43 cytopathic effect (CPE) assay, CellTiter Glo; format: cell-based, human coronavirus (HCov) OC43
[2] = read-out: OC43 IC50 (uM) MEDIAN, median
[3] = Betacoronavirus 1, OC43, read-out: OC43 IC50 (uM) MEDIAN, median

Chain of 229E Mpro (P0C6X1 2966-3267): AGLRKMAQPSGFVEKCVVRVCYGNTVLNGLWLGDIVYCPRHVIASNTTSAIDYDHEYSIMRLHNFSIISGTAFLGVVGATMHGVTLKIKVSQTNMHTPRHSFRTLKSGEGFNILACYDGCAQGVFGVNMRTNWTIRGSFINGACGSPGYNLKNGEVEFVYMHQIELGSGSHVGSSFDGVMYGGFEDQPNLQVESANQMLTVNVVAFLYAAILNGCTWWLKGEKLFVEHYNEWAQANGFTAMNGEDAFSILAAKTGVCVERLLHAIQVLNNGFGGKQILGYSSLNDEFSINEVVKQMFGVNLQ

| SMILES | EC50 (229E Mpro; 229E Mpro EC50) | IC50 [1] | IC50 (HCov OC43; [2]) | EC50 (229E Mpro; read-out: 229E Mpro EC50) | IC50 (HCov OC43; [3]) |
| --- | --- | --- | --- | --- | --- |
| CO[C@@H]1C[C@H](C(=O)N(c2ccc(C(C)(C)C)cc2)C(C)(C(=O)NC2CCC(F)(F)CC2)c2cnccn2)N(C#N)C1 (single isomer, unassigned) [1198 Isomer 2] | < 2 µM | < 2 µM | < 2 µM | – | – |
| CO[C@@H]1C[C@H](C(=O)N(c2ccc(S(F)(F)(F)(F)F)cc2)C(C(=O)NC2CCC(F)(F)CC2)c2cnccc2C)N(C#N)C1 (single isomer, unassigned) [1199 Isomer 1] | – | < 2 µM | – | < 2 µM | < 2 µM |
| CO[C@@H]1C[C@H](C(=O)N(c2ccc(S(F)(F)(F)(F)F)cc2)C(C(=O)NC2CCC(F)(F)CC2)c2cnccc2C)N(C#N)C1 (single isomer, unassigned) [1199 Isomer 2] | – | < 2 µM | < 2 µM | < 2 µM | – |
| CO[C@@H]1C[C@H](C(=O)N(c2ccc(S(F)(F)(F)(F)F)cc2)C(C(=O)NC2CCC(F)(F)CC2)c2cnccc2C(F)(F)F)N(C#N)C1 (single isomer, unassigned) [1202 Isomer 1] | < 2 µM | < 2 µM | – | – | < 2 µM |
| CO[C@@H]1C[C@H](C(=O)N(c2ccc(S(F)(F)(F)(F)F)cc2)C(C(=O)NC2CCC(F)(F)CC2)c2cnccc2C(F)(F)F)N(C#N)C1 (single isomer, unassigned) [1202 Isomer 2] | – | < 2 µM | < 2 µM | < 2 µM | – |
| CO[C@@H]1C[C@H](C(=O)N(c2ccc(C(C)(C)C)cc2F)C(C(=O)NC2CCC(F)(F)CC2)c2cncc(F)c2)N(C#N)C1 (single isomer, unassigned) [1207 Isomer 1] | 10 to 30 µM | 2 to 10 µM | 10 to 30 µM | – | – |
| CO[C@@H]1C[C@H](C(=O)N(c2ccc(C(C)(C)C)cc2F)C(C(=O)NC2CCC(F)(F)CC2)c2cncc(F)c2)N(C#N)C1 (single isomer, unassigned) [1207 Isomer 2] | > 30 µM | > 30 µM | > 30 µM | – | – |
| C[C@H]1CN(C#N)[C@H]1C(=O)N(c1ccc(S(F)(F)(F)(F)F)cc1)C(C(=O)NC1CCC(F)(F)CC1)c1cncc(F)c1 (single isomer, unassigned) [1210 Isomer 1] | < 2 µM | 10 to 30 µM | 10 to 30 µM | – | – |
| C[C@H]1CN(C#N)[C@H]1C(=O)N(c1ccc(S(F)(F)(F)(F)F)cc1)C(C(=O)NC1CCC(F)(F)CC1)c1cncc(F)c1 (single isomer, unassigned) [1210 Isomer 2] | – | < 2 µM | < 2 µM | < 2 µM | – |
| C[C@@H]1CN(C#N)[C@H]1C(=O)N(c1ccc(S(F)(F)(F)(F)F)cc1)C(C(=O)NC1CCC(F)(F)CC1)c1cncc(F)c1 (single isomer, unassigned) [1211 Isomer 1] | < 2 µM | 2 to 10 µM | – | – | < 2 µM |
| C[C@@H]1CN(C#N)[C@H]1C(=O)N(c1ccc(S(F)(F)(F)(F)F)cc1)C(C(=O)NC1CCC(F)(F)CC1)c1cncc(F)c1 (single isomer, unassigned) [1211 Isomer 2] | – | < 2 µM | < 2 µM | < 2 µM | – |
| CC(C)(C)c1ccc(N(C(=O)[C@H]2[C@H](F)CCN2C#N)C(C(=O)NC2CCC(F)(F)CC2)c2cncc(F)c2)cc1 (single isomer, unassigned) [1212 Isomer 1] | < 2 µM | < 2 µM | – | – | < 2 µM |
| CC(C)(C)c1ccc(N(C(=O)[C@H]2[C@H](F)CCN2C#N)C(C(=O)NC2CCC(F)(F)CC2)c2cncc(F)c2)cc1 (single isomer, unassigned) [1212 Isomer 2] | – | < 2 µM | < 2 µM | < 2 µM | – |
| CO[C@@H]1C[C@H](C(=O)N(c2ccc(C(C)(C)C)cc2)C(C)(C(=O)NC2CCCCC2)c2cccnc2)N(C#N)C1 (single isomer, unassigned) [1230 Isomer 1] | 2 to 10 µM | > 30 µM | > 30 µM | – | – |
| CO[C@@H]1C[C@H](C(=O)N(c2ccc(C(C)(C)C)cc2)C(C)(C(=O)NC2CCCCC2)c2cccnc2)N(C#N)C1 (single isomer, unassigned) [1230 Isomer 2] | < 2 µM | < 2 µM | < 2 µM | – | – |
| CO[C@@H]1C[C@H](C(=O)N(c2ccc(C(C)(C)C)cc2)C(C)(C(=O)NC2CCC(F)(F)CC2)c2cccnc2)N(C#N)C1 (single isomer, unassigned) [1232 Isomer 1] | 2 to 10 µM | 2 to 10 µM | – | – | 2 to 10 µM |
| CO[C@@H]1C[C@H](C(=O)N(c2ccc(C(C)(C)C)cc2)C(C)(C(=O)NC2CCC(F)(F)CC2)c2cccnc2)N(C#N)C1 (single isomer, unassigned) [1232 Isomer 2] | < 2 µM | < 2 µM | < 2 µM | – | – |
| CO[C@@H]1C[C@H](C(=O)N(c2ccc(S(F)(F)(F)(F)F)cc2)C(C)(C(=O)NC2CCC(F)(F)CC2)c2cccnc2)N(C#N)C1 (single isomer, unassigned) [1259 Isomer 1] | < 2 µM | 2 to 10 µM | – | – | 2 to 10 µM |
| CO[C@@H]1C[C@H](C(=O)N(c2ccc(S(F)(F)(F)(F)F)cc2)C(C(=O)NC2CCC(F)(F)CC2)c2cncc(F)c2)N(C#N)C1 (single isomer, unassigned) [1265 Isomer 1] | < 2 µM | < 2 µM | – | – | < 2 µM |
| CO[C@@H]1C[C@H](C(=O)N(c2ccc(S(F)(F)(F)(F)F)cc2)C(C(=O)NC2CCC(F)(F)CC2)c2cncc(F)c2)N(C#N)C1 (single isomer, unassigned) [1265 Isomer 2] | – | < 2 µM | < 2 µM | < 2 µM | – |
| N#CN1C[C@@H](OCc2ccccc2)C[C@@H]1C(=O)N(c1ccc(S(F)(F)(F)(F)F)cc1)C(C(=O)NC1CCC(F)(F)CC1)c1cncc(F)c1 (single isomer, unassigned) [1280 Isomer 1] | < 2 µM | < 2 µM | – | – | < 2 µM |
| N#CN1C[C@@H](OCc2ccccc2)C[C@@H]1C(=O)N(c1ccc(S(F)(F)(F)(F)F)cc1)C(C(=O)NC1CCC(F)(F)CC1)c1cncc(F)c1 (single isomer, unassigned) [1280 Isomer 2] | 2 to 10 µM | > 30 µM | 2 to 10 µM | – | – |
| CO[C@@H]1C[C@H](C(=O)N(c2ccc(S(F)(F)(F)(F)F)cc2F)C(C(=O)NC2CCC(F)(F)CC2)c2cccnc2)N(C#N)C1 (single isomer, unassigned) [1288 Isomer 1] | < 2 µM | < 2 µM | – | – | < 2 µM |
| CO[C@@H]1C[C@H](C(=O)N(c2ccc(S(F)(F)(F)(F)F)cc2F)C(C(=O)NC2CCC(F)(F)CC2)c2cccnc2)N(C#N)C1 (single isomer, unassigned) [1288 Isomer 2] | – | < 2 µM | 2 to 10 µM | < 2 µM | – |
| N#CN1C[C@H](O)C[C@@H]1C(=O)N(c1ccc(S(F)(F)(F)(F)F)cc1F)C(C(=O)NC1CCC(F)(F)CC1)c1cccnc1 (single isomer, unassigned) [1288a Isomer 1] | < 2 µM | < 2 µM | – | – | < 2 µM |
| N#CN1C[C@H](O)C[C@@H]1C(=O)N(c1ccc(S(F)(F)(F)(F)F)cc1F)C(C(=O)NC1CCC(F)(F)CC1)c1cccnc1 (single isomer, unassigned) [1288a Isomer 2] | – | 2 to 10 µM | 2 to 10 µM | < 2 µM | – |
| N#CC1(C(=O)N(c2ccc(S(F)(F)(F)(F)F)cc2)C(C(=O)NC2CCC(F)(F)CC2)c2cncc(F)c2)CC1 (single isomer, unassigned) [1289 Isomer 1, 1-cyano-N-[2-[(4,4-difluorocyclohexyl)amino]-1-(5-fluoro-3-pyridyl)-2-oxo-ethyl]-N-[4-(pentafluoro-λ^6-sulfanyl)phenyl]cyclopropanecarboxamide] | > 30 µM | > 30 µM | – | – | > 30 µM |
| N#CC1(C(=O)N(c2ccc(S(F)(F)(F)(F)F)cc2)C(C(=O)NC2CCC(F)(F)CC2)c2cncc(F)c2)CC1 (single isomer, unassigned) [1289 Isomer 2, 1-cyano-N-[2-[(4,4-difluorocyclohexyl)amino]-1-(5-fluoro-3-pyridyl)-2-oxo-ethyl]-N-[4-(pentafluoro-λ^6-sulfanyl)phenyl]cyclopropanecarboxamide] | – | > 30 µM | > 30 µM | > 30 µM | – |
| CO[C@@H]1C[C@H](C(=O)N(c2ccc(S(F)(F)(F)(F)F)cc2)C(C(=O)NCC2(C)CCCN(C(=O)OC(C)(C)C)C2)c2cccnc2)N(C#N)C1 (single isomer, unassigned) [1290 Isomer 1] | < 2 µM | < 2 µM | – | – | 2 to 10 µM |
